Measured values taken from paper PMC6155272, “Chroman-4-One Derivatives Targeting Pteridine Reductase 1 and Showing Anti-Parasitic Activity” (Molecules : A Journal of Synthetic Chemistry and Natural …, 2017).

Columns and labels:
[1] = test system: L. infantum (MHOM/BR/1972/BH46) intracellular amastigotes; assay: Activity against L. infantum intramacrophage amastigotes (high-content imaging); type: cell-based, Leishmania infantum; details: 50 μM, amastigotes; for inhibition at 50 µM: Leishmania infantum, read-out: % inh. L. infantum (50 μM)
Procedure: […] THP-1 cells were plated onto 384-well plates in Roswell Park Memorial Institute (RPMI) 1640 medium, Hyclone, GE Healthcare Life Sciences (Issaquah, WA, USA) containing 50 ng/mL phorbol 12-myristate 13-acetate (PMA, Sigma-Aldrich, Saint Louis, MS, USA), and incubated for 48 h. Then, 6 day-old promastigotes were added, at a ratio of 50 parasites per each THP-1 cell seeded earlier. After 24 h of infection, negative controls (0.5% DMSO), positive controls (10 μM amphotericin B) or compounds were added to the plate. Assay plates were incubated for 48 h, and then fixed with 4% paraformaldehyde and stained with Draq 5. The Operetta high-content automated imaging system was used to acquire images and the Harmony Software was optimized to quantify the host cell number, the infection ratio and the number of parasites per infected cell. The ratio between infected cells and total number of cells is then calculated, and defined as the Infection Ratio (IR). The raw data for IR values was normalized to negative—DMSO (mock)-treated infected cells—and positive (non-infected cells) controls to determine the normalized antiparasitic activity.

[2] = biological target: T1, Trypanosoma brucei pteridine reductase 1 (TbPTR1) (Trypanosoma brucei brucei, UniProt O76290); assay: TbPTR1 enzyme reporter assay (cytochrome-c reduction, 550 nm); type: biochemical; details: for IC50: compounds 1–3, SD agreed to ±10%; for inhibition at 50 µM: read-out: % Inhibition TbPTR1 (50 μM), 50 μM
T1 construct: made in house
T1 sequence (O76290 1-268): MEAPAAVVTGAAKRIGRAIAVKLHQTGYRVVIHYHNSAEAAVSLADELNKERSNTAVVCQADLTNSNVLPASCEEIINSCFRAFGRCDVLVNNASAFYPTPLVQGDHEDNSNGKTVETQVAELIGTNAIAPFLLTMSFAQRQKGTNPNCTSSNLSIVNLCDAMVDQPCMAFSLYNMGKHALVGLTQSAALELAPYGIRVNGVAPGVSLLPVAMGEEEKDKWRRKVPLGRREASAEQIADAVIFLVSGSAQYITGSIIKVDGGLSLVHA
Procedure: TbPTR1 and LmPTR1 were purified as reported in literature. The enzyme kinetic profile of each selected protein was characterized by a spectrophotometric assay. The experimental assay consists of enzyme kinetic reaction monitoring at 340 nm for a total time of 180 s. The enzyme kinetic activity was measured at steady-state concentration of 7,8-dihydro-L-biopterin (H2B) and NADPH substrates equal to 50 and 120 µM and varying the enzyme concentration in the 0.001–0.006 µM and 0.005–0.010–0.015–0.020–0.025–0.030 µM range for Lm- and TbPTR1, respectively. The resulting kcat values were equal to 0.68 (s^−1) and 7.2 (s^−1) for Tb- and LmPTR1, respectively. For both TbPTR1 and LmPTR1, the Km value evaluation assay for H2B- and NADPH-substrates was performed in the 0.3-0.6–0.9–1.2–2.4–4.8 µM and 3.0–6.0–12.0–40.0–90.0–190.0 µM concentrations range, respectively.
Compounds 1A–3A were evaluated as reported in our previous paper. The novel synthesized compounds 1–3 were tested towards TbPTR1 and LmPTR1 using the in vitro TbPTR1/LmPTR1 enzyme reporter assay. The experimental procedure consists of monitoring the non-enzymatic reduction reaction of cytochrome-c at 550 nm, related to the reduction reaction of H2B to tetrahydrobiopterin (H4B) by using NADPH as the cofactor. TbPTR1 and LmPTR1 enzyme activity was assayed in a buffer containing 20 mM sodium citrate (pH 6.0) in a final experimental volume equal to 600 µL. The final reaction mixture contained different substrates added in the following order: TbPTR1/LmPTR1 (0.018 µM/0.002 µM) in 20 mM Tris-HCl, glycerol 10% (v/v), pH 7.5; H2B at a final concentration equal to 0.3 µM; cytochrome-c (80 µM); Milli-Q water to a final volume of 600 µL and NADPH to a final concentration of 500 µM. Before the addition of NADPH, the reaction mixture was incubated for 10 min at 30 °C and 80 RPM. To allow the starting of the reaction, NADPH was added and the enzyme reaction was detected for a total time of 10 min at 30 °C, 550 nm. The inhibition profile characterization of compounds 1–3 was performed with a DU-640 spectrophotometer (Beckman Coulter, Brea, CA, USA). Each compound was assayed in duplicate against Tb/LmPTR1 target enzymes in the 0–10–25–50–80–150 µM concentrations range. At the different concentration values, the compounds were added to the reaction mixture (enzyme, H2B, cytochrome-c in 20 mM sodium citrate buffer and Milli-Q water) and incubated for 10 min at 30 °C, 80 RPM. The reaction was initiated by the addition of NADPH (500 µM) and monitored for 10 min at 30 °C, 550 nm. The absorbance values were processed by software analysis and transformed into the corresponding slopes. The percentages of inhibition and the IC50 values were determined.

W1-38 cells = assay: Cytotoxicity assay against W1-38 cells (CellTiter-Glo); type: cell-based; details: 100% = not cytotoxic, 0% = cytostatic
Procedure: The assays were performed using the CellTiter-Glo assay from Promega (Madison, AL, USA). The assay detects cellular adenosine triphosphate (ATP) content with the amount of ATP being directly proportional to the number of cells present. The A549 cells were obtained from DSMZ (German Collection of Microorganisms and Cell Cultures, Braunschweig, Germany) and W1-38 cells were obtained from ATCC (ATCC® CCL-75™) and were grown in Dulbecco's Modified Eagle Medium (DMEM) from Capricorn Scientific GmbH, Ebsdorfergrund, Germany with fetal bovine serum (FBS) (10% v/v) from Capricorn Scientific GmbH, Ebsdorfergrund, Germany, streptomycin (100 μg/mL) and penicillin G (100 U/mL).

[3] = test system: 786-O (renal carcinoma) cell line; assay: Mitochondrial toxicity (MitoTracker Red CMXRos uptake, high content imaging); type: cell-based; parameters: key to % Mitochondrial toxicity: NI: no inhibition; details: for % Mitochondrial toxicity: 10 µM, 100% = mitotoxic, 0% = not mitotoxic; for IC50: Homo sapiens, 786-0, read-out: IC50 Mitochondria
Procedure: This made use of MitoTracker® Red chloromethyl-X-rosamine (CMXRos) uptake and High Content Imaging to monitor compound mediated mitochondrial toxicity in the 786-O (renal carcinoma) cell line. Cells were maintained using Roswell Park Memorial Institute-1640 (RPMI-1640) medium from Capricorn Scientific GmbH, Ebsdorfergrund, Germany containing 2 mM glutamine, FBS (10% v/v), streptomycin (100 μg/mL) and penicillin G (100 U/mL).

CYP2C9 = biological target: T2, CYP2C9 (Homo sapiens, UniProt P11712); assay: Cytochrome P450 2C9 assay (P450-Glo); type: in vitro ADME; details: for inhibition at 10 µM: human
T2 construct: purchased Promega; host or cells: baculovirus-infected insect cells
T2 sequence (P11712 whole entry): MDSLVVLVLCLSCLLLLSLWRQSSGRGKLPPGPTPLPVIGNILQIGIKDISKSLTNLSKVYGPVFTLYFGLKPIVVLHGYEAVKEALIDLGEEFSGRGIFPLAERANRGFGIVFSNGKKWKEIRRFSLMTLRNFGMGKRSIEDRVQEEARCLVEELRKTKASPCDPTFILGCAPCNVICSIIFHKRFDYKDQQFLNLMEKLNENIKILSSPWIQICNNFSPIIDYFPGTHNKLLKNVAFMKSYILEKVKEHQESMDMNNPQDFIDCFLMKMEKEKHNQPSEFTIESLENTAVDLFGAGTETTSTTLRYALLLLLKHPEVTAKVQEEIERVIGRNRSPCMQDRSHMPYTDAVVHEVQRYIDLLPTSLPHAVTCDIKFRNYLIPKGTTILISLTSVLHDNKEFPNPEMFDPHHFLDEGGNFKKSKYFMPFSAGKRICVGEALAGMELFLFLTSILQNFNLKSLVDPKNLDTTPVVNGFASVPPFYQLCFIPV
Text: These assays made use of the PromegaP450-Glo™ (Madison, AL, USA) assay platform. Each CYP450 assay includes microsomal preparations of cytochromes from baculovirus-infected insect cells.

Row | Structure (SMILES) | % inh. L. infantum (50 μM) [1] | inhibition at 50 µM [1] [%] | IC50 [2] [µM] | inhibition at 50 µM ([2]; compounds 1–3 and control) [%] | % Cell growth W1-38 (10 μM) (W1-38 cells) [%] | % Mitochondrial toxicity [3] | IC50 [3] [µM] | IC50 (CYP2C9) [µM] | inhibition at 10 µM (CYP2C9) [%] | % Inhibition TbPTR1 (50 μM) ([2]; 50 μM, compounds 1–3 and control) [%]
1 | O=C1CC(c2ccc(O)c(O)c2)Oc2ccc(O)cc21 (centres unmarked) [Compound 3] | inactive | 3 | 82 | 34.6 | 86 | NI | > 100 | 4 | < 15 | –
2 | O=C1CC(c2ccc(O)cc2)Oc2ccc(O)cc21 (centres unmarked) [Compound 2] | – | 29 | 133 | 17.7 | 91 | NI | > 100 | > 100 | < 15 | –
3 | O=C1CC(c2cccc(O)c2)Oc2ccc(O)cc21 (centres unmarked) [Compound 1] | – | 31 | 31 | 81.3 | 108 | 6% | > 100 | 72 | < 15 | 81
